We go through 27 compounds from patent US7202261B2, “Calcilytic compounds” (NPS Pharmaceuticals, Inc., priority 1996, dated 2007).

This assay deals with T1, human calcium receptor (Homo sapiens, UniProt P41180).
T1 construct: expressed in transfected cells
T1 sequence (P41180 20-1078): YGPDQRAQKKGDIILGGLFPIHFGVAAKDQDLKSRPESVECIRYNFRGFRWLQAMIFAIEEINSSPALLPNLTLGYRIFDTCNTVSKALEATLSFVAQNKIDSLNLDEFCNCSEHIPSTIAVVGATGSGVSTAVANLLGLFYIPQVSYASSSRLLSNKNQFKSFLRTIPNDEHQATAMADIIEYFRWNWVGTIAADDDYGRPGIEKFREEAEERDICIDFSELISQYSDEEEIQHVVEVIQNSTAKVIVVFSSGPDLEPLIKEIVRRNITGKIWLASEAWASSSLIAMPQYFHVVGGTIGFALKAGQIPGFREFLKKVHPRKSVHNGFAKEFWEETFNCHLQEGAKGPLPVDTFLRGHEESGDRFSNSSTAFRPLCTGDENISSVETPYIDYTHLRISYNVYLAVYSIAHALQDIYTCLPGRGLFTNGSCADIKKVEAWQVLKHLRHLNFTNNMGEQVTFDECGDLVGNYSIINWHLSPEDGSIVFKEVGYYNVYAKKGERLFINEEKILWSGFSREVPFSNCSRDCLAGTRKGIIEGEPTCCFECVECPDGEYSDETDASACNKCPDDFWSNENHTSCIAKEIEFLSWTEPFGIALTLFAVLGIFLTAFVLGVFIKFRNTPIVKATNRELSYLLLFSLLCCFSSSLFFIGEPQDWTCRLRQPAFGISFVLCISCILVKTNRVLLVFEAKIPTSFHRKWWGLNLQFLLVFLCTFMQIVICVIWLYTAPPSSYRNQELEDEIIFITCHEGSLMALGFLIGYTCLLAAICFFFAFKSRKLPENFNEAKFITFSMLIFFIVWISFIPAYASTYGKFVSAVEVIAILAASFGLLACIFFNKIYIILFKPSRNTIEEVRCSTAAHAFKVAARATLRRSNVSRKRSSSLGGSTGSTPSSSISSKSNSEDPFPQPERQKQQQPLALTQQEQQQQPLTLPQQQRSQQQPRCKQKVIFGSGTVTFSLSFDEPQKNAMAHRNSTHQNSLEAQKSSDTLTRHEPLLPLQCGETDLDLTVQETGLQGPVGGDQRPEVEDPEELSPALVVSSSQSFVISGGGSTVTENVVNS
Description: Calcium Receptor Inhibitor Assay. Type of assay: cell-based. The method, then:
This example illustrates the use of the Calcium Receptor Inhibitor Assay. […] Res. 10 Suppl. […] Intracellular Ca^2+ was measured using fluo-3, a fluorescent calcium indicator.
The procedure was as follows:
1. Cells were maintained in T-150 flasks in selection media (DMEM supplemented with 10% fetal bovine serum and 200 μg/mL hygromycin B), under 5% CO2:95% air at 37° C. and were grown up to 90% confluency.
2. The medium was decanted and the cell monolayer was washed twice with phosphate-buffered saline (PBS) kept at 37° C. After the second wash, 6 mL of 0.02% EDTA in PBS was added and incubated for 4 minutes at 37° C. Following the incubation, cells were dispersed by gentle agitation.
3. Cells from 2 or 3 flasks were pooled and pelleted (100×g). The cellular pellet was resuspended in […] of SPF-PCB+ and pelleted again by centrifugation. This washing was done twice.
SPF-PCB was made up and stored at 4° C. On the day of use, SPF-PCB was supplemented with 1 mg/mL of D-glucose and 1 mM CaCl2 and then split into two fractions. To one fraction, bovine serum albumin (BSA; fraction V, ICN) was added at 5 mg/mL (SPF-PCB+). This buffer was used for washing, loading and maintaining the cells. The BSA-free fraction was used for diluting the cells in the cuvette for measurements of fluorescence.
5. Following the incubation period, the cells were pelleted by centrifugation. The resulting pellet was washed with SPF-PCB+. After this washing, cells were resuspended in SPF-PCB+ at a density of 1–2×10^6 cells/mL.
6. For recording fluorescent signals, 300 μL of cell suspension were diluted in 1.2 mL of SPF buffer containing 1 mM CaCl2 and 1 mg/mL of D-glucose. Measurements of fluorescence were performed at 37° C. with constant stirring using a spectrofluorimeter. […] To calibrate fluorescence signals, digitonin (5 mg/mL in ethanol) was added to obtain Fmax, and the apparent Fmin was determined by adding Tris-EGTA (2.5 M Tris-Base, 0.3 M EGTA).
7. To determine the potential calcilytic activity of test compounds, cells were incubated with test compound (or vehicle as a control) for 90 seconds before increasing the concentration of extracellular Ca^2+ from 1 to 2 mM. Calcilytic compounds were detected by their ability to block, in a concentration-dependent manner, increases in the concentration of intracellular Ca^2+ elicited by extracellular Ca^2+.

Where [1] appears, read: HEK 293 4.0–7 cells stably expressing the human calcium receptor, fluo-3, read-out: IC50 for blocking increases of intracellular Ca2+ elicited by extracellular Ca2+.

Structures can show the parent of a compound that is named as a salt. Where two headings read alike, the source gives them in different places. Bounds are passed on as bounds.

For the compound `CCCCCCCCCCCCOCC(O)CNC(C)(C)Cc1ccc(OC)cc1` (stereo not drawn) [Compound 72, N-(3-Dodecanoxy-2-hydroxypropyl)-1,1-dimethyl-2-(4-methoxyphenyl)ethylamine], under setting [1], the IC50 (usually the midpoint of a concentration-inhibition curve) was < 1 µM.

On to `COc1ccc(CC(C)(C)NCC(O)COCC23CC4CC(CC(C4)C2)C3)cc1` (stereo not drawn) [Compound 74, N-[2-Hydroxy-3-(1-adamantylmethoxy)propyl]-1,1-dimethyl-2-(4-methoxyphenyl)ethylamine Hydrochloride], for which the IC50 under setting [1] was < 1 µM.

In the case of `COc1ccc(CC(C)(C)NCC(O)COCC2CCCCC2)cc1` (stereo not drawn) [Compound 75, N-(2-Hydroxy-3-cyclohexylmethoxypropyl)-1,1-dimethyl-2-(4-methoxyphenyl)ethylamine Hydrochloride], the half-inhibitory concentration (IC50) is < 10 µM.

For `COc1ccc(CC(C)(C)NCC(O)CCc2ccccc2)cc1` (stereo not drawn) [Compound 79, N-(2-Hydroxy-4-phenylbutyl)-1,1-dimethyl-2-(4-methoxyphenyl)ethylamine Hydrochloride], the IC50 was < 50 µM.

For the compound `COc1ccc(CC(C)(C)NCCc2ccccc2)cc1` [Compound 84, N-(2-Phenylethyl)-1,1-dimethyl-2-(4-methoxyphenyl)ethylamine], the 50% inhibitory concentration (IC50) was > 50 µM.

Turning to `COc1ccc(CCC(C)(C)NCC(O)COc2ccccc2)cc1` (stereo not drawn) [Compound 90, N-(2-Hydroxy-3-phenoxypropyl)-1,1-dimethyl-3-(4-methoxyphenyl)propylamine Hydrochloride], the IC50 under setting [1] is < 50 µM.

For the compound `CC(C)(Cc1cccc2ccccc12)NCC(O)COc1ccccc1` (stereo not drawn) [Compound 92, N-(2-hydroxy-3-phenoxypropyl)-1,1-dimethyl-2-(1-naphthyl)ethylamine], the IC50 under setting [1] was > 50 µM.

Consider `COc1ccc(CC(C)(C)NCC(O)COC2CCCCC2)cc1` (stereo not drawn) [Compound 93, N-(2-hydroxy-3-cyclohexoxypropyl)-1,1-dimethyl-2-(4-methoxyphenyl)ethylamine], for which the IC50 was < 10 µM.

With `COc1ccc(CC(C)(C)NCC(O)COC23CC4CC(CC(C4)C2)C3)cc1` (stereo not drawn) [Compound 96, N-[2-Hydroxy-3-(1-adamantanoxy)propyl]-1-1,1-dimethyl-2-(4-methoxyphenyl)ethyl amine], the IC50 under setting [1] is < 1 µM.

As to `Cc1ccc(CC(C)(C)NCC(O)COc2ccccc2)cc1` (stereo not drawn) [Compound 98, N-(2-Hydroxy-3-phenoxypropyl)-1,1-dimethyl-2-(4-methylphenyl)ethylamine Hydrochloride], the IC50 under setting [1] is < 10 µM.

Regarding `COc1cccc(CC(C)(C)NCC(O)COc2ccccc2)c1` (stereo not drawn) [Compound 99, N-(2-Hydroxy-3-phenoxypropyl)-1,1-dimethyl-2-(3-methoxyphenyl)ethylamine Hydrochloride], the IC50 under setting [1] was > 50 µM.

With `COc1ccc(CC(C)(C)NCC(C)(O)COc2ccccc2)cc1` (stereo not drawn) [Compound 101, N-(2-Hydroxy-2-methyl-3-phenoxypropyl)-1,1-dimethyl-2-(4-methoxyphenyl)ethylamine Hydrochloride], under setting [1], the IC50 was < 50 µM.

For the compound `CCOc1ccc(CC(C)(C)NCC(O)COc2ccccc2)cc1` (stereo not drawn) [Compound 102, N-(2-hydroxy-3-phenoxypropyl)-1,1-dimethyl-2-(4-ethoxyphenyl)ethylamine], under setting [1], the IC50 is > 50 µM.

Consider `CC(C)(Cc1ccc(Cl)cc1)NCC(O)COc1ccccc1` (stereo not drawn) [Compound 103, N-(2-Hydroxy-3-phenoxypropyl)-1,1-dimethyl-2-(4-chlorophenyl)ethylamine Hydrochloride], for which the IC50 under setting [1] is < 10 µM.

For the compound `CC(C)(Cc1cccc(Cl)c1)NCC(O)COc1ccccc1` (stereo not drawn) [Compound 104, N-(2-Hydroxy-3-phenoxypropyl)-1,1-dimethyl-2-(3-chlorophenyl)ethylamine Hydrochloride], the IC50 under setting [1] was < 10 µM.

With `COc1ccc(CC(C)(C)NC[C@@H](O)COc2cccc(Cl)c2C#N)cc1` [Compound 109, (R)—N-[2-Hydroxy-3-(3-chloro-2-cyanophenoxy)propyl]-1,1-dimethyl-2-(4-methoxyphenyl)-ethylamine Hydrochloride], the half-maximal inhibitory concentration (IC50) under setting [1] is < 1 µM.

For `CCc1ccc(CC(C)(C)NCC(O)COc2ccccc2)cc1` (stereo not drawn) [Compound 110, N-(2-Hydroxy-3-phenoxypropyl)-1,1-dimethyl-2-(4-ethylphenyl)ethylamine Hydrochloride], the IC50 under setting [1] is < 10 µM.

For `CC(C)(Cc1ccc(OC(F)(F)F)cc1)NCC(O)COc1ccccc1` (stereo not drawn) [Compound 111, N-(2-Hydroxy-3-phenoxypropyl)-1,1-dimethyl-2-(4-trifluoromethoxyphenyl)ethylamine Hydrochloride], the IC50 under setting [1] was < 10 µM.

On to `CC(C)c1ccc(CC(C)(C)NCC(O)COc2ccccc2)cc1` (stereo not drawn) [Compound 112, N-(2-Hydroxy-3-phenoxypropyl)-1,1-dimethyl-2-(4-isopropylphenyl)ethylamine Hydrochloride], for which, under setting [1], the IC50 was < 1 µM.

Turning to `CCC(C)(Cc1ccc(OC)cc1)NCC(O)COc1ccccc1` (stereo not drawn) [Compound 113, N-(2-Hydroxy-3-phenoxypropyl)-1-ethyl-1-methyl-2-(4-methoxyphenyl)ethylamine Hydrochloride], the IC50 under setting [1] was < 1 µM.

In the case of `CCC(CC)(Cc1ccc(OC)cc1)NCC(O)COc1ccccc1` (stereo not drawn) [Compound 114, N-(2-Hydroxy-3-phenoxypropyl)-1,1-diethyl-2-(4-methoxyphenyl)ethylamine Hydrochloride], the IC50 under setting [1] is < 10 µM.

`COc1ccc(CC(C)(C)NC[C@@H](O)COc2cccc(Cl)c2Cl)cc1` [Compound 115, (R)—N-[2-Hydroxy-3-(2,3-dichlorophenoxy)propyl]-1,1-dimethyl-2-(4-methoxyphenyl)ethylamine Hydrochloride]: under setting [1], the IC50 is < 1 µM.

For `COc1ccc(CC(C)(C)NC[C@H](O)COc2cccc(Cl)c2Cl)cc1` [Compound 116, (S)—N-[2-Hydroxy-3-(2,3-dichlorophenoxy)propyl]-1,1-dimethyl-2-(4-methoxyphenyl)ethyl amine Hydrochloride], the IC50 under setting [1] is < 1 µM.

As to `COc1ccc(CC(C)(C)NCC(O)COc2ccccc2)cc1C` (stereo not drawn) [Compound 117, N-(2-Hydroxy-3-phenoxypropyl)-1,1-dimethyl-2-(4-methoxy-3-methylphenyl)ethylamine Hydrochloride], under setting [1], the concentration for half-maximal inhibition (IC50) was < 1 µM.

Take `COc1ccc(CC(C)(C)NCC(O)COc2cccc(OC)c2C#N)cc1` (stereo not drawn) [Compound 118, N-[2-Hydroxy-3-(2-cyano-3-methoxyphenoxy)propyl]-1,1-dimethyl-2-(4-methoxyphenyl)ethylamine Hydrochloride]: the concentration for half-maximal inhibition (IC50) under setting [1] is < 1 µM.

As to `COc1ccc(CC(C)(C)NCC(O)COc2cccc(Cl)c2C#N)cc1` (stereo not drawn) [Compound 119, N-[2-Hydroxy-3-(3-chloro-2-cyanophenoxy)propyl]-1,1-dimethyl-2-(4-methoxyphenyl)ethylamine Hydrochloride], under setting [1], the IC50 was < 1 µM.

On to `CC(C)(Cc1ccc2ccccc2c1)NCC(O)COc1ccccc1` (stereo not drawn) [Compound 120, N-(2-Hydroxy-3-phenoxypropyl)-1,1-dimethyl-2-(2-naphthyl)ethylamine Hydrochloride], for which, under setting [1], the IC50 is < 1 µM.
